Data from ChEMBL document CHEMBL4152270, “Free radical rearrangement synthesis and microbiological evaluation of novel 2-sulfoether-4-quinolone scaffolds as potential antibacterial agents” (Eur J Med Chem, 2018).
In brackets after ≈: the same amount, converted by molar mass. Activity calls are given as the source filed them. The rule behind the calls is not given here.

How the values were obtained:
Candida albicans = test: Antimicrobial activity against Candida albicans after 18 to 20 hrs by micro broth dilution method; assay type: functional
Bacillus cereus [1] = test: Bactericidal activity against Bacillus cereus after 24 hrs by micro broth dilution method; assay type: functional
Bacillus cereus [2] = test: Antimicrobial activity against Bacillus cereus after 18 to 20 hrs by micro broth dilution method; assay type: functional
Staphylococcus aureus [3] = test: Antimicrobial activity against Staphylococcus aureus after 18 to 20 hrs by micro broth dilution method; assay type: functional
Staphylococcus aureus [4] = test: Antimicrobial activity against methicillin-resistant Staphylococcus aureus after 18 to 20 hrs by micro broth dilution method; assay type: functional
Pseudomonas aeruginosa = test: Antimicrobial activity against Pseudomonas aeruginosa after 18 to 20 hrs by micro broth dilution method; assay type: functional
Staphylococcus aureus [5] = test: Bactericidal activity against Staphylococcus aureus after 24 hrs by micro broth dilution method; assay type: functional
Escherichia coli = test: Antimicrobial activity against Escherichia coli after 18 to 20 hrs by micro broth dilution method; assay type: functional
Staphylococcus aureus [6] = test: Growth inhibition of Staphylococcus aureus at 1 to 4 times MIC after 24 hrs; assay type: functional, organism-based
DNA gyrase subunit A = DNA gyrase subunit A (Staphylococcus aureus, UniProt P20831); test: Inhibition of Staphylococcus aureus DNA gyrase subunit A supercoiling activity using relaxed pBR322 DNA as substrate after 60 mins by agarose gel electrophoresis
Staphylococcus aureus [7] = test: Growth inhibition of Staphylococcus aureus at 0.25 to 0.5 times MIC after 24 hrs; assay type: functional, organism-based
Staphylococcus aureus [8] = test: Induction of morphological changes in Staphylococcus aureus ATCC 6538 assessed as cell wall swelling at 0.8 uM after 24 hrs by transmission electron microscopy; assay type: functional, organism-based
Staphylococcus aureus [9] = test: Induction of cell death in Staphylococcus aureus ATCC 6538 at 0.8 uM after 24 hrs by transmission electron microscopy; assay type: functional, organism-based
Staphylococcus aureus [10] = test: Induction of morphological changes in Staphylococcus aureus ATCC 6538 assessed as shrinkage of cell morphology at 0.8 uM after 24 hrs by transmission electron microscopy; assay type: functional, organism-based
Staphylococcus aureus [11] = test: Induction of cell wall damage in Staphylococcus aureus ATCC 6538 assessed as emergence of solute loss at 0.8 uM after 24 hrs by transmission electron microscopy; assay type: functional, organism-based
Staphylococcus aureus [12] = test: Induction of cell wall damage in Staphylococcus aureus ATCC 6538 assessed as blemishes on cell wall at 0.8 uM after 24 hrs by transmission electron microscopy; assay type: functional, organism-based

DNA gyrase subunit A, sequence (P20831 whole entry): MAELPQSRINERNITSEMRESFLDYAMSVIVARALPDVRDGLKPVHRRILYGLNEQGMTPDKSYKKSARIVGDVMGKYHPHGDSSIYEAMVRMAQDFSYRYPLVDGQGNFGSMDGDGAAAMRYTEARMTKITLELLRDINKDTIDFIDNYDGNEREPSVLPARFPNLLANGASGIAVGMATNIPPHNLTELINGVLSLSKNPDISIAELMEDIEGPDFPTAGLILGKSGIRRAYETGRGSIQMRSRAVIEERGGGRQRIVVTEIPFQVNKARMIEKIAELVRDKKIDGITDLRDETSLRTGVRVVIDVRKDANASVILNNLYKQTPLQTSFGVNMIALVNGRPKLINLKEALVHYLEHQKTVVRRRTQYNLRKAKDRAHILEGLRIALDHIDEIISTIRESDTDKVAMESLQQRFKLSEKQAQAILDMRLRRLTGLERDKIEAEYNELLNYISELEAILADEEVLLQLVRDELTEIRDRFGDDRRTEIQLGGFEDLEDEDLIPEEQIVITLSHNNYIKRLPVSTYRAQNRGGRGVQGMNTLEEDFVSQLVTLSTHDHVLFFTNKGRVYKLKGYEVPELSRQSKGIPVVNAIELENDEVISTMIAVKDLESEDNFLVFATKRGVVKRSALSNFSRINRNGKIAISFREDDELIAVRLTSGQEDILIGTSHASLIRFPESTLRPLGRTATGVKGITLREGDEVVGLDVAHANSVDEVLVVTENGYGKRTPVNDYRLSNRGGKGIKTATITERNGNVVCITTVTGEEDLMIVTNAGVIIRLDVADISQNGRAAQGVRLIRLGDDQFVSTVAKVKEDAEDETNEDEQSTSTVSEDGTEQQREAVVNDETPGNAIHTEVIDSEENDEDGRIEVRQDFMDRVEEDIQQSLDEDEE

Row | Compound | MIC (Candida albicans) | MBC (Bacillus cereus [1]) [µM] | MIC (Bacillus cereus [2]) [µM] | MIC (Staphylococcus aureus [3]) [µM] | MIC (Staphylococcus aureus [4]) [µM] | MIC (Pseudomonas aeruginosa) [µM] | MBC (Staphylococcus aureus [5]) [µM] | MIC (Escherichia coli) [µM] | growth inhibition (GI) (Staphylococcus aureus [6]) | IC50 (DNA gyrase subunit A) [µM] | growth inhibition (GI) (Staphylococcus aureus [7]) | Activity (Staphylococcus aureus [8]) | Activity (Staphylococcus aureus [9]) | Activity (Staphylococcus aureus [10]) | Activity (Staphylococcus aureus [11]) | Activity (Staphylococcus aureus [12])
1 | CC(=O)c1c([S+](C)[O-])[nH]c2ccc(C(F)(F)F)cc2c1=O (stereo not drawn) | > 200 µM | 50 (≈ 15.9 µg/mL) | 3.12 (≈ 0.992 µg/mL) | 12.5 (≈ 3.97 µg/mL) | > 200 | > 200 | 50 (≈ 15.9 µg/mL) | > 200 | – | – | – | – | – | – | – | –
2 | CC1COc2c(N3CCN(C)CC3)c(F)cc3c(=O)c(C(=O)O)cn1c23 (stereo not drawn) [OFLOXACIN] | – | 1.6 (≈ 0.578 µg/mL) | 0.8 (≈ 0.289 µg/mL) | 0.125 (≈ 0.0452 µg/mL) | 100 (≈ 36.1 µg/mL) | 4 (≈ 1.45 µg/mL) | 0.5 (≈ 0.181 µg/mL) | 0.5 (≈ 0.181 µg/mL) | – | – | – | – | – | – | – | –
3 | CSc1[nH]c2cc(Br)ccc2c(=O)c1C(C)=O | > 200 µM | – | 200 (≈ 62.4 µg/mL) | 12.5 (≈ 3.9 µg/mL) | – | > 200 | – | > 200 | – | – | – | – | – | – | – | –
4 | CSc1[nH]c2c(C)cccc2c(=O)c1C(C)=O | > 200 µM | – | > 200 | > 200 | – | > 200 | – | > 200 | – | – | – | – | – | – | – | –
5 | CSc1[nH]c2ccc(OC(F)(F)F)cc2c(=O)c1C(C)=O | > 200 µM | 25 (≈ 7.93 µg/mL) | 12.5 (≈ 3.97 µg/mL) | 3.12 (≈ 0.992 µg/mL) | > 200 | > 200 | 25 (≈ 7.93 µg/mL) | > 200 | – | – | – | – | – | – | – | –
6 | CN(C)[C@@H]1C(O)=C(C(N)=O)C(=O)[C@@]2(O)C(O)=C3C(=O)c4c(O)cccc4[C@@](C)(O)[C@H]3C[C@@H]12 [TETRACYCLINE] | – | 3.2 (≈ 1.42 µg/mL) | 1.6 (≈ 0.711 µg/mL) | 0.0325 (≈ 0.0144 µg/mL) | 200 (≈ 88.9 µg/mL) | 2 (≈ 0.889 µg/mL) | 0.125 (≈ 0.0556 µg/mL) | 0.25 (≈ 0.111 µg/mL) | – | – | – | – | – | – | – | –
7 | CSc1[nH]c2cc(C(F)(F)F)c(C#N)cc2c(=O)c1C(C)=O | 200 µM | 25 (≈ 8.16 µg/mL) | 1.6 (≈ 0.522 µg/mL) | 0.8 (≈ 0.261 µg/mL) | > 200 | > 200 | 25 (≈ 8.16 µg/mL) | > 200 | Active | 6.47 | inactive | – | – | – | – | –
8 | CSc1[nH]c2ccc(C)cc2c(=O)c1C(C)=O | > 200 µM | – | > 200 | > 200 | – | > 200 | – | > 200 | – | – | – | – | – | – | – | –
9 | GENTAMICIN | – | 3.2 | 1.6 | 0.8 | > 200 | 1 | 3.2 | 0.125 | – | – | – | – | – | – | – | –
10 | CSc1[nH]c2c(Cl)ccc(C(F)(F)F)c2c(=O)c1C(C)=O | > 200 µM | 12.5 (≈ 4.2 µg/mL) | 1.6 (≈ 0.537 µg/mL) | 0.8 (≈ 0.269 µg/mL) | > 200 | > 200 | 12.5 (≈ 4.2 µg/mL) | > 200 | Active | – | inactive | – | – | – | – | –
11 | COc1cccc2c(=O)c(C(C)=O)c(SC)[nH]c12 | > 200 µM | – | > 200 | > 200 | – | > 200 | – | > 200 | – | – | – | – | – | – | – | –
12 | CC(=O)c1c(O)[nH]c2ccc(C(F)(F)F)cc2c1=O | > 200 µM | – | > 200 | > 200 | – | > 200 | – | > 200 | – | – | – | – | – | – | – | –
13 | C[C@@H]1[C@H](O)[C@@H](C)/C=C/C=C/C=C/C=C/C=C/C=C/C=C/[C@H](O[C@@H]2O[C@H](C)[C@@H](O)[C@H](N)[C@@H]2O)C[C@@H]2O[C@](O)(C[C@@H](O)C[C@@H](O)[C@H](O)CC[C@@H](O)C[C@@H](O)CC(=O)O[C@H]1C)C[C@H](O)[C@H]2C(=O)O [AMPHOTERICIN B] | 0.2 µg/mL | – | – | – | – | – | – | – | – | – | – | – | – | – | – | –
14 | COc1ccc(C(F)(F)F)c2c(=O)c(C(C)=O)c(SC)[nH]c12 | > 200 µM | – | > 200 | > 200 | – | > 200 | – | > 200 | – | – | – | – | – | – | – | –
15 | COc1ccc2[nH]c(SC)c(C(C)=O)c(=O)c2c1 | > 200 µM | – | > 200 | > 200 | – | > 200 | – | > 200 | – | – | – | – | – | – | – | –
16 | CSc1[nH]c2c(Br)cccc2c(=O)c1C(C)=O | > 200 µM | > 200 | > 200 | 6.25 (≈ 1.95 µg/mL) | > 200 | > 200 | 25 (≈ 7.8 µg/mL) | > 200 | – | – | – | – | – | – | – | –
17 | CCSc1[nH]c2ccc(C(F)(F)F)cc2c(=O)c1C(C)=O | > 200 µM | 50 (≈ 15.8 µg/mL) | 25 (≈ 7.88 µg/mL) | 6.25 (≈ 1.97 µg/mL) | > 200 | > 200 | 25 (≈ 7.88 µg/mL) | > 200 | – | 16.2 | – | – | – | – | – | –
18 | CSc1[nH]c2ccccc2c(=O)c1C(C)=O | > 200 µM | – | > 200 | > 200 | – | > 200 | – | > 200 | – | – | – | – | – | – | – | –
19 | CSc1[nH]c2c(Cl)cc(C(F)(F)F)cc2c(=O)c1C(C)=O | > 200 µM | 6.25 (≈ 2.1 µg/mL) | 1.6 (≈ 0.537 µg/mL) | 0.8 (≈ 0.269 µg/mL) | > 200 | > 200 | 6.25 (≈ 2.1 µg/mL) | > 200 | Active | 8.01 | inactive | – | – | – | – | –
20 | OC(Cn1cncn1)(Cn1cncn1)c1ccc(F)cc1F [FLUCONAZOLE] | 1 µg/mL | – | – | – | – | – | – | – | – | – | – | – | – | – | – | –
21 | CSc1[nH]c2ccc(C(F)(F)F)cc2c(=O)c1C(C)=O | > 200 µM | > 200 | 50 (≈ 15.1 µg/mL) | 6.25 (≈ 1.88 µg/mL) | > 200 | > 200 | 25 (≈ 7.53 µg/mL) | > 200 | – | – | – | – | – | – | – | –
22 | CSc1[nH]c2c(C(F)(F)F)ccc(C(F)(F)F)c2c(=O)c1C(C)=O | 200 µM | 6.25 (≈ 2.31 µg/mL) | 1.6 (≈ 0.591 µg/mL) | 0.8 (≈ 0.295 µg/mL) | > 200 | > 200 | 6.25 (≈ 2.31 µg/mL) | > 200 | Active | 1.92 | inactive | Active | Active | Active | Active | Active
23 | CSc1[nH]c2c(Cl)cccc2c(=O)c1C(C)=O | > 200 µM | – | > 200 | > 200 | – | > 200 | – | > 200 | – | – | – | – | – | – | – | –
24 | CSc1[nH]c2c(Cl)cc([N+](=O)[O-])cc2c(=O)c1C(C)=O | > 200 µM | > 200 | 6.25 (≈ 1.95 µg/mL) | 12.5 (≈ 3.91 µg/mL) | > 200 | > 200 | > 200 | > 200 | – | 80.3 | – | – | – | – | – | –
25 | CSc1[nH]c2cc(C(F)(F)F)ccc2c(=O)c1C(C)=O | > 200 µM | > 200 | 50 (≈ 15.1 µg/mL) | 3.12 (≈ 0.942 µg/mL) | > 200 | > 200 | 6.25 (≈ 1.88 µg/mL) | > 200 | – | – | – | – | – | – | – | –
26 | CSc1[nH]c2ccc(Br)cc2c(=O)c1C(C)=O | > 200 µM | – | 200 (≈ 62.4 µg/mL) | 25 (≈ 7.8 µg/mL) | – | > 200 | – | > 200 | – | – | – | – | – | – | – | –
27 | CSc1[nH]c2c(F)ccc(C(F)(F)F)c2c(=O)c1C(C)=O | 200 µM | 6.25 (≈ 2 µg/mL) | 3.12 (≈ 0.998 µg/mL) | 0.8 (≈ 0.255 µg/mL) | > 200 | > 200 | 6.25 (≈ 2 µg/mL) | > 200 | – | 2.47 | – | – | – | – | – | –
